Data as given in patent US5883084A, “Treatment of respiratory diseases utilizing α-tocopheryl-phosphocholine” (Clarion Pharmaceuticals Inc., priority 1998, dated 1999).

What was measured:
[1] = tested on: RAW 264.7 murine monocyte/macrophage cell line (PMA-stimulated respiratory burst); assay: In vitro anti-inflammatory activity by inhibition of macrophage activation (luminol chemiluminescence, PMA-stimulated); format: cell-based, mouse; conditions: for inhibition at 1000 µM / inhibition at 3000 µM / inhibition at 10000 µM / inhibition at 30000 µM: Mus musculus, RAW264.7, RAW 264.7, PMA 100 ng, luminol; for inhibition at 1000 µM: 1 mM; for inhibition at 3000 µM: 3 mM; for inhibition at 10000 µM: 10 mM; for inhibition at 30000 µM: 30 mM
Description: Activation of alveolar macrophages is a critical component of pulmonary inflammation. In their activated state, alveolar macrophages secrete a variety of inflammatory mediators and reactive oxygen species. In the present in vitro model of inflammation, mouse macrophages are activated by phorbol-12-myristate-13-acetate (PMA). The intensity of macrophage activation in the presence or absence of the subject compounds is determined by measuring the respiratory burst (release of reactive oxygen species) of the macrophages.
The RAW 264.7 cell line (American Type Culture Collection, Rockville, Md., USA, Accession No. TIE 71) is a murine monocyte/macrophage line, the cells of which show many of the differentiative functions of a macrophage. Like macrophages, the cells are capable of phagocytosis and undergo an oxidative burst (increased oxygen consumption) and production of oxygen radicals (e.g., superoxide) in response to appropriate signals. Agents that inhibit the activation of these cells in vitro so as to inhibit the respiratory burst and corresponding production of oxygen radicals associated with activation interdict a critical step in the inflammatory process.
The respiratory burst and corresponding production of oxygen radicals that accompany macrophage activation can be measured in a variety of ways, including chemiluminescence based on the reaction of the oxygen radicals with luminol added to the culture medium (see M. A. Trush et al., 1978, "The Generation of Chemiluminescence by Phagocytic Cells.", Methods in Enzymology 57: 462-494). Chemiluminescence generated from luminol in the culture medium of macrophage cell lines is recognized in the art as a marker of macrophage activation. Materials:
Cell line: RAW 264.7 (ATCC TIB-71, attachment dependent);
Culture medium: Dulbecco's Modified Eagle's Medium (DMEM, Sigma Chemical Co. Cat. No. D-7777) with 10% Fetal Bovine Serum (FBS);
Standard protocol for culturing cell lines: in T-75 or T-150 flasks; 37° C.; 95% air, 5% CO2; 100% humidity;
Cell line is passaged when approximately 80% confluent; with trypsin (1 mg/mL) and ethylenediamine tetraacetic acid (EDTA) (1 mM in Ca-Mg free Hank's balanced salt solution); at 1:4 to 1:5 split;
All procedures are performed aseptically in a Class II biological safety cabinet using standard Biosafety Level 2 (BL-2 containment procedures. In order to prevent genetic drift in stock cell lines, fresh cultures are prepared at approximately monthly intervals with cells thawed from liquid nitrogen storage. Methodology:
After cell passage, count cells with a hemocytometer; Adjust cell concentration to approximately 1,000,000 cells per mL;
Suspend cells in DMEM lacking phenol red and without FBS;
Pipette 1 mL of cell suspension into a standard luminometer cuvette (12×75 mm), commercially obtainable from Analytical Luminescence Laboratories, San Diego, Calif., USA;
Add luminol to final concentration of 0.2 mM;
Add test compound dissolved in phosphate buffered saline (PBS), or in dimethyl sulfoxide (DMSO) for final concentration levels ranging from 1 to 30 mM;
Add 100 nanograms of phorbol myristate acetate (PMA); and
Wait 1 minute and read photo counts (i.e., luminescence) on a Monolight 2010 luminometer available from Analytical Luminescence Laboratories, San Diego.

premature fetal rabbits = assay: Surfactant activity in RDS model using premature fetal rabbits (dynamic lung compliance); format: in vivo, rabbit; conditions: fetal rabbits 27 days gestation, 0.2 mL endotracheal instillation, 30 minute intervals for 90 minutes
Description: A common in vivo model for the evaluation of surfactants is lung compliance in premature fetal rabbits. This method is described in Revak et al., Am. Rev. Respir. Dir. (1986) 134:1258-1265. In this assay, the effectiveness of the subject compounds as lung surfactants is determined by evaluating dynamic lung compliance in premature fetal rabbits which are known to have difficulty initiating breathing due to low levels of natural lung surfactant.
1. The test animals are fetal rabbits delivered prematurely at 27 days of gestation.
2. The test solution is prepared by suspending the Formula I compound ([…]) in 6 mL of 10 mM HEPES buffer with sodium chloride (150 mM) at a pH of 7.4.
3. 0.2 mL of test solution is administered to the fetal rabbit before breathing commenced by endotracheal instillation and then monitored for breathing. The control group receives saline.
4. The fetal rabbit is ventilated and monitored for breathing.
5. After 30 minutes, the rabbit is examined for quality of breathing and color. A healthy pink color is indicative of good breathing. […] The higher the value of measured compliance, the better the breathing of the test animal.
6. Compliance values are determined at 30 minute intervals for 90 minutes.

Mouse Tracheal Mucus = assay: Mucolytic activity in mouse tracheal mucus (phenol red secretion, aerosol); format: in vivo; conditions: mice, 25 mg/mL in saline, approximately 100 mg/kg, 5 mice, saline control zero percent
Description: The invention provides a method of alleviating respiratory distress due to tenacious pulmonary mucous secretions in a patient suffering from such distress. In the preferred embodiment, the method is accomplished by the intermittent inhalation of an aerosol or dry powder formulation of α-tocopheryl-phosphocholine to deliver an effective mucolytic amount of α-tocopheryl-phosphocholine to the lung airways. […] The in vivo mucolytic assay is similar to that described by Chand et al. Agents and Actions, (1993) 38:165-170, incorporated herein by reference.
The procedure, which delivers the test compound to mice as an aerosol, is a modified assay for the evaluation of mucolytic activity in mice as described by Chand et al., previously cited.
1. The test animals are Hsd:1CR(CD-1) mice that weigh approximately 25 g each.
2. The test compound is diluted in normal saline to a concentration of 25 mg/mL and administered using a human De Vilbiss atomizer Model No. 15 at approximately 100 mg/kg. The control group receives saline. The nozzle is placed in the mouth of the mouse and 2 spray doses are given.
3. After 30 minutes, phenol red dissolved as a 5% solution in saline is given IP at a dose of 0.1 mL/10 g body weight.
4. […]
6. The amount of phenol red secreted into the trachea is quantitated photometrically at 546 nm. […]

[2] = tested on: Histamine-Induced Airway Resistance; assay: Histamine-induced airway resistance in anesthetized guinea pigs (total pulmonary resistance); format: in vivo, guinea pig; conditions: after induction with histamine, salbutamol 10 μg/kg or same equivalent dosage
Description: The following is a protocol for the evaluation of anti-histamine activity in anesthetized guinea pigs.
1. Guinea pigs of 650-1000 g are used to facilitate catheterization of the jugular vein and carotid artery. The guinea pigs are anesthetized with 35-45 mg/kg pentobarbital sodium. When or if the recordings are unstable, anesthetic additions are made during the course of the intervention. The cutdown is a ventral medial incision over the cervical area so that the trachea, jugular vein and carotid artery can be cannulated. The animals are immediately attached to a volume regulated Harvard® rodent respirator, Model 683, via a tracheostomy and the respirator is set at 60 respirations per minute and a volume of 8 ml/kg to maintain a normal arterial P-CO2 of approximately 40 mmHg. […] These two parameters are measured before and after each drug is given and at each increment in the dose response studies with each drug candidate and recorded. Total pulmonary resistance (TPR) is calculated as the difference between the expiratory pressure and inspiratory pressures with a constant volume.
After the anesthetic and muscle relaxant are given, the animal is allowed to stabilize. […] The dose-related increases or decreases are quantitated against these controls to determine the percent inhibition of histamine activity. […]

Structure (SMILES) | anti-inflammatory activity with increasing concentration ([1]; 1 to 30 mM, in contrast to α-tocopherol) | inhibition at 1000 µM [1] [%] | inhibition at 3000 µM [1] [%] | inhibition at 10000 µM [1] [%] | inhibition at 30000 µM [1] [%] | compliance values (dynamic lung compliance) (premature fetal rabbits) | average measured percent change in mucolytic activity (Mouse Tracheal Mucus) | TPR course after administration [2]
Cc1c(C)c2c(c(C)c1OP(=O)([O-])OCC[N+](C)(C)C)CCC(C)(CCCC(C)CCCC(C)CCCC(C)C)O2 (stereo not drawn) [CPR 2001, α-tocopheryl-phosphocholine] | anti-inflammatory activity markedly increases | 5 | 13 | 31 | 56 | significantly greater compliance values | about 82.6% | –
CC(=O)N[C@@H](CS)C(=O)O [N-acetylcysteine, reference compound] | – | – | – | – | – | – | about 59.5% | –
CC(C)(C)NCC(O)c1ccc(O)c(CO)c1 (stereo not shown) [salbutamol] | – | – | – | – | – | – | – | briefly increased and then decreased below the control value
Cc1c(C)c2c(c(C)c1O)CCC(C)(CCCC(C)CCCC(C)CCCC(C)C)O2 (stereo not drawn) [α-tocopherol, reference compound] | – | -3 | -6 | -6 | -14 | – | – | –
